Data from PMC10349806 (Nature Communications, 2023).
Changes are numbered by the printed parent chain. Values joined by “and” are separate entries in the source; they are usually repeats but may differ in a detail not shown here. Equal values may be shown once.

Key:
PfCRT variant D311A = target: T1, PfCRT variant D311A (Plasmodium falciparum, UniProt Q9N623, A220S/D311A/I356T/K76T/M74I/N326S/N75E/Q271E/R371I); assay: CQ uptake assay, oocytes expressing D311A; format: cell-based
T1 sequence (Q9N623 1-424 M74I/N75E/K76T/A220S/Q271E/D311A/N326S/I356T/R371I): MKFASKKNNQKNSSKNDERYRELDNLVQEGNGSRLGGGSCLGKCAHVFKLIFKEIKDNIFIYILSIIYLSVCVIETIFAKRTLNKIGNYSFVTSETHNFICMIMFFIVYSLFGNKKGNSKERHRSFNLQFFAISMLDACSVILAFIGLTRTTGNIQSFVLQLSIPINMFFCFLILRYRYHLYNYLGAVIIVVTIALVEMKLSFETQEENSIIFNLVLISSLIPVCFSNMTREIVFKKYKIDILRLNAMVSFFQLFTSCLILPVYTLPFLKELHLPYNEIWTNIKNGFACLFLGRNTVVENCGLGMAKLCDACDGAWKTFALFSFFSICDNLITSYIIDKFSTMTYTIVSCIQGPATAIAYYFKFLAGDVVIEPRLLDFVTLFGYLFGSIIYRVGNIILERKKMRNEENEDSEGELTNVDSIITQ
Procedure: (§1) Site-directed mutagenesis of PfCRT^Dd2 was performed as described using the megaprimer method with overlap extension[21],[54]. The primer pairs used are listed in Supplementary Table 6. Please note that a codon-optimized and oocyte-adapted version of PfCRT^Dd2 was used[22] (Supplementary Fig. 16). The resulting DNA fragment was cloned into the SP64T expression vector and verified by sequencing.
(§2) Oocytes were obtained as described previously. Briefly, adult (>2 years old) female X. laevis frogs (NASCO) were anesthetized in a cooled solution of ethyl 3-amino benzoate methanesulfonate (0.1%, w/v), followed by a surgical removal of parts of the ovary. The ovary lobes were carefully dissected and small pieces of oocytes were incubated in Ca^2+-free ND96 buffer (96 mM NaCl, 2 mM KCl, 1 mM MgCl2 buffered with 5 mM HEPES/NaOH, pH 7.5) supplemented with collagenase D (0.1%, w/v; Roche), BSA (0.5%, w/v), and 9 mm Na2HPO4 at 18 °C for 14-16 h while gentle shaking. After incubation, the oocytes were carefully washed several times with ND96 buffer (96 mM NaCl, 2 mM KCl, 1.8 mM CaCl2, 1 mM MgCl2 buffered with 5 mM HEPES/NaOH, pH 7.5) supplemented with 100 mg l^−1 gentamycin). Defolliculated and healthy-looking stage V-VI oocytes were manually selected for RNA microinjection. The RNA was generated as following: The codon-optimized sequences of PfCRT variants were cloned into the pSP64T expression vector. After vector linearization using the restriction endonucleases BamHI or SalI (New England Biolabs), transcription was performed using the in vitro SP6 mMessage mMachine Kit (Ambion)[34]. The obtained RNA was kept at −80 °C and diluted with nuclease-free water to a concentration of 0.6 μg μl^−1. Precision-bore glass capillary tubes (3.5-inch glass capillaries; Drummond Scientific Co.) were pulled on a vertical puller (P-87 Flaming/Brown micropipette puller, Sutter Instrument Co.), graduated, and placed on a microinjector (Nanoject II Auto-Nanoliter Injector, Drummond Scientific Co.). 50 nl of nuclease-free water alone (control oocytes) or 50 nl of 0.6 μg μl^−1 RNA were injected under stereomicroscopic control. Injected oocytes were incubated for 46–72 h at 18 °C with twice-daily buffer changes before usage in experiments.
Drug uptake assays were performed as described previously[21],[22],[24],[34]. […] The direction of radio-labeled drug transport is here from the mostly acidic extracellular solution (pH 4.5 or 6.0, as indicated) into the oocyte cytosol (pH ∼ 7.2), which corresponds to the efflux of drug from the acidic digestive vacuole (pH 5.2) into the parasite cytoplasm (pH 7.2). The topology of PfCRT in the oolemma is such that both the N- and C-terminus face the extracellular milieu[3],[22]. In the parasite, the N- and C-terminus face the lumen of the digestive vacuole. CQ uptake kinetics were performed by incubating oocytes in ND96 buffer adjusted to a pH of 4.5, 5.0, 5.5, or 6.0 and supplemented with 50 nM [^3H]CQ and one of 7 different CQ concentrations (10 µM, 50 µM, 100 µM, 200 µM, 300 µM, 400 µM, 500 µM CQ). The reaction was stopped at the 60 min time point, which is in the linear uptake range[22],[34] (Supplementary Fig. 17). For determination of the amount of drug uptake for each oocyte, the reaction medium was removed and the oocytes were washed three times with 2 ml of ice-cold ND96 buffer. Each oocyte was individually transferred to a scintillation vial containing 5% sodium dodecyl sulfate (200 μl) for lysis. The radioactivity of each sample was measured using a liquid scintillation analyzer Tri-Carb 4910 TR (PerkinElmer). Oocytes that were injected with water instead of RNA were analyzed in parallel, representing the uptake of a drug by diffusion and/or endogenous permeation pathways. The resulting value represents the “background“ level of drug accumulation in oocytes (in-depth discussion in[22]). […]

PfCRT variant E95A = target: T2, PfCRT variant E95A (Plasmodium falciparum, UniProt Q9N623, A220S/E95A/I356T/K76T/M74I/N326S/N75E/Q271E/R371I); assay: CQ uptake assay, oocytes expressing E95A; format: cell-based
T2 sequence (Q9N623 1-424 M74I/N75E/K76T/E95A/A220S/Q271E/N326S/I356T/R371I): T1 sequence (Q9N623 1-424 M74I/N75E/K76T/A220S/Q271E/D311A/N326S/I356T/R371I) with E95A, A311D
Procedure: as §1
as §2, with “Precision-bore glass capillary tubes (3.5-inch glass capillaries; Drummond Scientific Co.) were pulled on a vertical puller (P-87 Flaming/Brown micropipette puller, Sutter Instrument Co.), graduated, and placed on a microinjector (Nanoject II Auto-Nanoliter Injector, Drummond Scientific Co.). 50 nl of nuclease-free water alone (control oocytes) or 50 nl of 0.6 μg μl^−1 RNA were injected under stereomicroscopic control. Injected oocytes were incubated for 46–72 h at 18 °C with twice-daily buffer changes before usage in experiments.” left out
Drug uptake assays were performed as described previously[21],[22],[24],[34]. […] The radioactivity of each sample was measured using a liquid scintillation analyzer Tri-Carb 4910 TR (PerkinElmer). Oocytes that were injected with water instead of RNA were analyzed in parallel, representing the uptake of a drug by diffusion and/or endogenous permeation pathways. […]

[1] = D311A, 50 µM CQ, 1 h, mean ± SEM

## CCN(CC)CCCC(C)Nc1ccnc2cc(Cl)ccc12 (stereo not drawn) [CQ, chloroquine]
PfCRT variant D311A; [1]
  Activity at pH 4.5: 1.07 ± 0.25 pmol h-1 oocyte-1
  Activity at pH 6.0: 3.22 ± 0.61 pmol h-1 oocyte-1
PfCRT variant D311A; D311A, CQ transport at pH 4.5 / pH 6.0
  R-value: 0.33 ± 0.05
PfCRT variant D311A; pH 4.5, single replicates, Fig 1d left
  D311A transport activity pH 4.5: 0.58 pmol oocyte-1 h-1 and 1.64 pmol oocyte-1 h-1 and 0.99 pmol oocyte-1 h-1
PfCRT variant D311A; pH 4.5 vs pH 6.0, Fig 1d left
  D311A R-value: 0.22 and 0.35 and 0.42
PfCRT variant D311A; pH 6.0, single replicates, Fig 1d left
  D311A transport activity pH 6.0: 2.63 pmol oocyte-1 h-1 and 4.69 pmol oocyte-1 h-1 and 2.33 pmol oocyte-1 h-1
PfCRT variant E95A; 50 µM CQ, 1 h, mean ± SEM
  Activity at pH 4.5: 1.21 ± 0.20 pmol h-1 oocyte-1
  Activity at pH 6.0: 2.74 ± 0.74 pmol h-1 oocyte-1
PfCRT variant E95A; CQ transport at pH 4.5 / pH 6.0
  R-value: 0.41 ± 0.11
